Assay results from the NIST ThermoML archive (doi:10.1021/acs.jced.6b00691).

Experiment: xn = mol fraction of the nth substance listed
Conditions: Liquid, Taylor dispersion method, x2 = 0

CCCCCCC [heptane] + O=C=O
binary diffusion coefficient [m2/s]
Conditions | 1000 kPa | 10000 kPa | 30000 kPa | 31000 kPa | 48000 kPa | 49000 kPa | 50000 kPa | 51000 kPa | 67000 kPa | 68000 kPa
298 K | 7.28e-09 | 6.82e-09 | – | 5.9e-09 | – | – | 5.37e-09 | – | – | 5.06e-09
323 K | 9.25e-09 | 8.72e-09 | 7.64e-09 | – | – | – | – | 6.95e-09 | – | 6.37e-09
348 K | 1.14e-08 | 1.02e-08 | 9.4e-09 | – | 8.1e-09 | – | – | – | 7.89e-09 | –
373 K | 1.37e-08 | 1.25e-08 | 1.12e-08 | – | – | 9.95e-09 | – | – | – | 9.32e-09
398 K | 1.61e-08 | 1.49e-08 | 1.31e-08 | – | – | – | 1.17e-08 | – | – | 1.09e-08
423 K | 1.8e-08 | 1.68e-08 | 1.5e-08 | – | – | – | 1.36e-08 | – | – | 1.23e-08

CCCCCCCCCCCCCCCC [hexadecane] + O=C=O
Conditions | binary diffusion coefficient [m2/s]
298 K, 1000 kPa | 2.49e-09
298 K, 10000 kPa | 2.31e-09
298 K, 30000 kPa | 2.08e-09
323 K, 1100 kPa | 3.75e-09
323 K, 10000 kPa | 3.41e-09
323 K, 30000 kPa | 3.17e-09
323 K, 51000 kPa | 2.61e-09
323 K, 69000 kPa | 2.51e-09
348 K, 1000 kPa | 5.13e-09
348 K, 10000 kPa | 4.64e-09
348 K, 30000 kPa | 4.37e-09
348 K, 50000 kPa | 3.77e-09
348 K, 67000 kPa | 3.49e-09
373 K, 1100 kPa | 6.72e-09
373 K, 10000 kPa | 6.17e-09
373 K, 30000 kPa | 5.88e-09
373 K, 52000 kPa | 4.84e-09
373 K, 67000 kPa | 4.67e-09
398 K, 1100 kPa | 8.53e-09
398 K, 29000 kPa | 7.42e-09
398 K, 53000 kPa | 6.27e-09
398 K, 69000 kPa | 5.86e-09
423 K, 1100 kPa | 1.04e-08
423 K, 10000 kPa | 9.72e-09
423 K, 29000 kPa | 9.16e-09
423 K, 45000 kPa | 7.96e-09
423 K, 69000 kPa | 7.07e-09

CC(C)CCCC(C)CCCC(C)CCCCC(C)CCCC(C)CCCC(C)C (configuration not stated) [2,6,10,15,19,23-hexamethyltetracosane] + O=C=O
Conditions | binary diffusion coefficient [m2/s]
298 K, 1100 kPa | 9.6e-10
298 K, 10000 kPa | 8.6e-10
298 K, 32000 kPa | 6.9e-10
298 K, 52000 kPa | 5.6e-10
298 K, 66000 kPa | 4.9e-10
323 K, 1100 kPa | 1.78e-09
323 K, 10000 kPa | 1.61e-09
323 K, 30000 kPa | 1.35e-09
323 K, 52000 kPa | 1.14e-09
323 K, 64000 kPa | 1.02e-09
348 K, 1000 kPa | 2.83e-09
348 K, 11000 kPa | 2.57e-09
348 K, 31000 kPa | 2.18e-09
348 K, 50000 kPa | 1.94e-09
348 K, 67000 kPa | 1.73e-09
373 K, 1000 kPa | 4.06e-09
373 K, 10000 kPa | 3.72e-09
373 K, 30000 kPa | 3.21e-09
373 K, 47000 kPa | 2.88e-09
373 K, 66000 kPa | 2.58e-09
398 K, 1000 kPa | 5.45e-09
398 K, 11000 kPa | 4.98e-09
398 K, 31000 kPa | 4.38e-09
398 K, 50000 kPa | 3.89e-09
398 K, 66000 kPa | 3.55e-09
423 K, 1000 kPa | 7.01e-09
423 K, 11000 kPa | 6.36e-09
423 K, 30000 kPa | 5.69e-09
423 K, 50000 kPa | 5e-09
423 K, 67000 kPa | 4.6e-09

CCCCCCCCCCCC [dodecane] + O=C=O
Conditions | binary diffusion coefficient [m2/s]
298 K, 1300 kPa | 3.72e-09
298 K, 24000 kPa | 3.1e-09
298 K, 47000 kPa | 2.65e-09
323 K, 1200 kPa | 5.53e-09
323 K, 25000 kPa | 4.23e-09
323 K, 46000 kPa | 3.65e-09
323 K, 63000 kPa | 3.44e-09
373 K, 1200 kPa | 9.3e-09
373 K, 24000 kPa | 7.57e-09
373 K, 46000 kPa | 6.54e-09
373 K, 61000 kPa | 5.98e-09
423 K, 1200 kPa | 1.35e-08
423 K, 23000 kPa | 1.14e-08
423 K, 46000 kPa | 9.75e-09
423 K, 65000 kPa | 8.65e-09
